Measurements as given in ChEMBL document CHEMBL3797131, “Discovery and optimization of 1,7-disubstituted-2,2-dimethyl-2,3-dihydroquinazolin-4(1H)-ones as potent and selective PKCθ inhibitors” (Bioorg Med Chem, 2016).

How the values were obtained:
Assay type in all cases: ADME, organism-based
[1] = Clearance in Balb/c mouse at 1 mg/kg, po and 0.1 mg/kg, iv; conditions: in vivo
[2] = Plasma concentration in Balb/c mouse at 10 mg/kg to 100 mg/kg, po after 4 hrs
[3] = Oral bioavailability in Balb/c mouse at 1 mg/kg; conditions: in vivo
[4] = AUC in Balb/c mouse at 1 mg/kg, po; conditions: in vivo

clearance [1] [mL/min/kg] | concentration at 4 h [2] [nM] | bioavailability [3] [%] | AUC [4] [ng·h/mL] | SMILES
27.3 | 2000 | 28 | 172 | C[C@H](c1ccccc1)N1c2cc(-n3c(=O)[nH]c4ncccc43)ccc2C(=O)NC1(C)C
143 |  | 12 | 16 | CC1(C)NC(=O)c2ccc(-n3c(=O)[nH]c4ncccc43)cc2N1Cc1ccccc1
107 |  | 7 | 11 | C[C@@H](c1ccccc1)N1c2cc(-n3c(=O)[nH]c4ncccc43)ccc2C(=O)NC1(C)C
